Tests used:
Assay in all cases: Test B pre-/postemergence
Assay type in all cases: in vivo
Parameters in all cases: key: 0 is no effect; 10 is complete control
[1] = tested on: bedstraw (Galium aparine)
How it was run: (§1)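 Scored visually 0 (none) to 10 (complete control) against untreated plants after twelve to sixteen greenhouse days. Test chemicals, formulated in surfactant-containing non-phytotoxic solvent, applied to soil after planting and, separately, onto 1- to 4-leaf (2–18 cm) plants.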

[2] = tested on: broadleaf signalgrass (Brachiaria decumbens)
How it was run: as §1

[3] = tested on: cocklebur (Xanthium strumarium)
How it was run: as §1

[4] = tested on: corn (Zea mays)
How it was run: as §1

[5] = tested on: crabgrass (Digitaria sanguinalis)
How it was run: as §1

[6] = tested on: giant foxtail (Setaria faberii)
How it was run: as §1

[7] = tested on: momingglory (Ipomoea hederacea)
How it was run: as §1

[8] = tested on: pigweed (Amaranthus retroflexus)
How it was run: as §1

[9] = tested on: purple nutsedge (Cyperus rotundus)
How it was run: as §1

[10] = tested on: rape (Brassica napus)
How it was run: as §1

[11] = tested on: soybean (Glycine max)
How it was run: as §1

[12] = tested on: sugar beet (Beta vulgaris)
How it was run: as §1

[13] = tested on: velvetleaf (Abutilon theophrasti)
How it was run: as §1

[14] = tested on: wheat (Triticum aestivum)
How it was run: as §1

[15] = Preemergence, Rate 62 g/ha, scale of 0 to 10

Cc1cnc(-n2cnc(C(F)(F)F)n2)nc1C(=O)c1cccc(OC(F)(F)F)c1 [Compound 64]
9: Plant response rating, Bedstraw ([1]; Rate 500 g/ha, Postemergence) | Plant response rating, Bedstraw ([1]; Rate 500 g/ha, Preemergence) | Plant response rating, B. signalgrass ([2]; Rate 125 g/ha, Preemergence) | Plant response rating, Cocklebur ([3]; Rate 500 g/ha, Postemergence) | Plant response rating, Crabgrass [5, 15] | Plant response rating, Crabgrass ([5]; Rate 250 g/ha, Postemergence) | Plant response rating, Crabgrass ([5]; Rate 500 g/ha, Postemergence) | Plant response rating, Redroot pigweed [8, 15] | Redroot pigweed plant response rating ([8]; Rate 125 g/ha, Postemergence) | Plant response rating, Redroot pigweed ([8]; Rate 125 g/ha, Preemergence) | Plant response rating, Sugarbeets [12, 15] | Sugarbeets plant response rating ([12]; Rate 62 g/ha, Postemergence) | Plant response rating, Velvetleaf ([13]; Rate 500 g/ha, Postemergence)
10: Plant response rating, B. signalgrass ([2]; Rate 250 g/ha, Preemergence) | Plant response rating, B. signalgrass ([2]; Rate 500 g/ha, Preemergence) | Plant response rating, Crabgrass ([5]; Rate 125 g/ha, Preemergence) | Plant response rating, Crabgrass ([5]; Rate 250 g/ha, Preemergence) | Plant response rating, Crabgrass ([5]; Rate 500 g/ha, Preemergence) | Plant response rating, Morningglory ([7]; Rate 125 g/ha, Preemergence) | Plant response rating, Morningglory ([7]; Rate 250 g/ha, Preemergence) | Plant response rating, Morningglory ([7]; Rate 500 g/ha, Preemergence) | Plant response rating, Redroot pigweed ([8]; Rate 250 g/ha, Postemergence) | Plant response rating, Redroot pigweed ([8]; Rate 250 g/ha, Preemergence) | Plant response rating, Redroot pigweed ([8]; Rate 500 g/ha, Postemergence) | Plant response rating, Redroot pigweed ([8]; Rate 500 g/ha, Preemergence) | Plant response rating, Rape ([10]; Rate 500 g/ha, Preemergence) | Sugarbeets plant response rating ([12]; Rate 125 g/ha, Postemergence) | Plant response rating, Sugarbeets ([12]; Rate 125 g/ha, Preemergence) | Plant response rating, Sugarbeets ([12]; Rate 250 g/ha, Postemergence) | Plant response rating, Sugarbeets ([12]; Rate 250 g/ha, Preemergence) | Plant response rating, Sugarbeets ([12]; Rate 500 g/ha, Postemergence) | Plant response rating, Sugarbeets ([12]; Rate 500 g/ha, Preemergence) | Plant response rating, Velvetleaf ([13]; Rate 500 g/ha, Preemergence)
4: Bedstraw plant response rating ([1]; Rate 125 g/ha, Postemergence) | B. signalgrass plant response rating ([2]; Rate 62 g/ha, Postemergence) | Plant response rating, Corn ([4]; Rate 250 g/ha, Postemergence) | Plant response rating, Corn ([4]; Rate 250 g/ha, Preemergence) | Plant response rating, Corn ([4]; Rate 500 g/ha, Preemergence) | Crabgrass plant response rating ([5]; Rate 62 g/ha, Postemergence) | Plant response rating, Giant foxtail ([6]; Rate 250 g/ha, Postemergence) | Plant response rating, Morningglory [7, 15] | Rape plant response rating ([10]; Rate 125 g/ha, Postemergence) | Plant response rating, Rape ([10]; Rate 125 g/ha, Preemergence) | Plant response rating, Rape ([10]; Rate 250 g/ha, Postemergence) | Plant response rating, Rape ([10]; Rate 500 g/ha, Postemergence) | Plant response rating, Velvetleaf [13, 15]
8: Plant response rating, Bedstraw ([1]; Rate 125 g/ha, Preemergence) | Plant response rating, Bedstraw ([1]; Rate 250 g/ha, Preemergence) | B. signalgrass plant response rating ([2]; Rate 62 g/ha, Preemergence) | Plant response rating, B. signalgrass ([2]; Rate 500 g/ha, Postemergence) | Morningglory plant response rating ([7]; Rate 125 g/ha, Postemergence) | Plant response rating, Morningglory ([7]; Rate 250 g/ha, Postemergence) | Plant response rating, Morningglory ([7]; Rate 500 g/ha, Postemergence) | Redroot pigweed plant response rating ([8]; Rate 62 g/ha, Postemergence) | Plant response rating, Rape ([10]; Rate 250 g/ha, Preemergence) | Plant response rating, Velvetleaf ([13]; Rate 250 g/ha, Postemergence)
1: Plant response rating, Cocklebur [3, 15] | Plant response rating, Cocklebur ([3]; Rate 125 g/ha, Preemergence) | Corn plant response rating ([4]; Rate 62 g/ha, Postemergence) | Plant response rating, Giant foxtail [6, 15] | Giant foxtail plant response rating ([6]; Rate 62 g/ha, Postemergence) | Plant response rating, Soybean ([11]; Rate 125 g/ha, Preemergence) | Plant response rating, Soybean ([11]; Rate 250 g/ha, Preemergence) | Plant response rating, Soybean ([11]; Rate 500 g/ha, Preemergence) | Plant response rating, Wheat ([14]; Rate 250 g/ha, Preemergence)
7: Plant response rating, Bedstraw ([1]; Rate 250 g/ha, Postemergence) | Cocklebur plant response rating ([3]; Rate 125 g/ha, Postemergence) | Plant response rating, Cocklebur ([3]; Rate 250 g/ha, Postemergence) | Plant response rating, Cocklebur ([3]; Rate 500 g/ha, Preemergence) | Velvetleaf plant response rating ([13]; Rate 125 g/ha, Postemergence)
6: Plant response rating, B. signalgrass ([2]; Rate 250 g/ha, Postemergence) | Cocklebur plant response rating ([3]; Rate 62 g/ha, Postemergence) | Plant response rating, Giant foxtail ([6]; Rate 500 g/ha, Preemergence) | Plant response rating, Soybean ([11]; Rate 500 g/ha, Postemergence) | Plant response rating, Velvetleaf ([13]; Rate 125 g/ha, Preemergence) | Plant response rating, Velvetleaf ([13]; Rate 250 g/ha, Preemergence)
3: Plant response rating, Bedstraw [1, 15] | Bedstraw plant response rating ([1]; Rate 62 g/ha, Postemergence) | Plant response rating, Corn [4, 15] | Corn plant response rating ([4]; Rate 125 g/ha, Postemergence) | Plant response rating, Corn ([4]; Rate 125 g/ha, Preemergence) | Giant foxtail plant response rating ([6]; Rate 125 g/ha, Postemergence) | Plant response rating, Rape [10, 15] | Rape plant response rating ([10]; Rate 62 g/ha, Postemergence) | Soybean plant response rating ([11]; Rate 125 g/ha, Postemergence) | Wheat plant response rating ([14]; Rate 125 g/ha, Postemergence) | Plant response rating, Wheat ([14]; Rate 250 g/ha, Postemergence)
2: Plant response rating, Giant foxtail ([6]; Rate 125 g/ha, Preemergence) | Morningglory plant response rating ([7]; Rate 62 g/ha, Postemergence) | Plant response rating, Nutsedge ([9]; Rate 500 g/ha, Postemergence) | Plant response rating, Nutsedge ([9]; Rate 500 g/ha, Preemergence) | Soybean plant response rating ([11]; Rate 62 g/ha, Postemergence) | Velvetleaf plant response rating ([13]; Rate 62 g/ha, Postemergence) | Wheat plant response rating ([14]; Rate 62 g/ha, Postemergence) | Plant response rating, Wheat ([14]; Rate 500 g/ha, Preemergence)
0: Plant response rating, Nutsedge [9, 15] | Nutsedge plant response rating ([9]; Rate 62 g/ha, Postemergence) | Nutsedge plant response rating ([9]; Rate 125 g/ha, Postemergence) | Plant response rating, Nutsedge ([9]; Rate 250 g/ha, Postemergence) | Plant response rating, Soybean [11, 15] | Plant response rating, Wheat [14, 15] | Plant response rating, Wheat ([14]; Rate 125 g/ha, Preemergence)
5: B. signalgrass plant response rating ([2]; Rate 125 g/ha, Postemergence) | Plant response rating, Corn ([4]; Rate 500 g/ha, Postemergence) | Crabgrass plant response rating ([5]; Rate 125 g/ha, Postemergence) | Plant response rating, Giant foxtail ([6]; Rate 250 g/ha, Preemergence) | Plant response rating, Giant foxtail ([6]; Rate 500 g/ha, Postemergence) | Plant response rating, Soybean ([11]; Rate 250 g/ha, Postemergence) | Plant response rating, Wheat ([14]; Rate 500 g/ha, Postemergence)

Reference: patent publication US6525001B1, “Substituted pyrimidine and pyridine herbicides” (Mid-American Commercialization Corporation, priority 1997, dated 2003)
